Assay results as given in PMC8190356, “The Effect of the EGFR - Targeting Compound 3-[(4-Phenylpyrimidin-2-yl) Amino] Benzene-1-Sulfonamide (13f) against Cholangiocarcinoma Cell Lines” (Asian Pacific Journal of Cancer Prevention : APJCP, 2021).

Molecular target: T1, tyrosine kinase of EGFR (TK-EGFR) (Homo sapiens, UniProt P00533)
T1 construct: tyrosine kinase of EGFR (TK-EGFR), recombinant protein from E. coli
Assay: ADP-Glo kinase assay with recombinant TK-EGFR, […] ATP
Type: biochemical

T1 sequence (P00533 25-1210): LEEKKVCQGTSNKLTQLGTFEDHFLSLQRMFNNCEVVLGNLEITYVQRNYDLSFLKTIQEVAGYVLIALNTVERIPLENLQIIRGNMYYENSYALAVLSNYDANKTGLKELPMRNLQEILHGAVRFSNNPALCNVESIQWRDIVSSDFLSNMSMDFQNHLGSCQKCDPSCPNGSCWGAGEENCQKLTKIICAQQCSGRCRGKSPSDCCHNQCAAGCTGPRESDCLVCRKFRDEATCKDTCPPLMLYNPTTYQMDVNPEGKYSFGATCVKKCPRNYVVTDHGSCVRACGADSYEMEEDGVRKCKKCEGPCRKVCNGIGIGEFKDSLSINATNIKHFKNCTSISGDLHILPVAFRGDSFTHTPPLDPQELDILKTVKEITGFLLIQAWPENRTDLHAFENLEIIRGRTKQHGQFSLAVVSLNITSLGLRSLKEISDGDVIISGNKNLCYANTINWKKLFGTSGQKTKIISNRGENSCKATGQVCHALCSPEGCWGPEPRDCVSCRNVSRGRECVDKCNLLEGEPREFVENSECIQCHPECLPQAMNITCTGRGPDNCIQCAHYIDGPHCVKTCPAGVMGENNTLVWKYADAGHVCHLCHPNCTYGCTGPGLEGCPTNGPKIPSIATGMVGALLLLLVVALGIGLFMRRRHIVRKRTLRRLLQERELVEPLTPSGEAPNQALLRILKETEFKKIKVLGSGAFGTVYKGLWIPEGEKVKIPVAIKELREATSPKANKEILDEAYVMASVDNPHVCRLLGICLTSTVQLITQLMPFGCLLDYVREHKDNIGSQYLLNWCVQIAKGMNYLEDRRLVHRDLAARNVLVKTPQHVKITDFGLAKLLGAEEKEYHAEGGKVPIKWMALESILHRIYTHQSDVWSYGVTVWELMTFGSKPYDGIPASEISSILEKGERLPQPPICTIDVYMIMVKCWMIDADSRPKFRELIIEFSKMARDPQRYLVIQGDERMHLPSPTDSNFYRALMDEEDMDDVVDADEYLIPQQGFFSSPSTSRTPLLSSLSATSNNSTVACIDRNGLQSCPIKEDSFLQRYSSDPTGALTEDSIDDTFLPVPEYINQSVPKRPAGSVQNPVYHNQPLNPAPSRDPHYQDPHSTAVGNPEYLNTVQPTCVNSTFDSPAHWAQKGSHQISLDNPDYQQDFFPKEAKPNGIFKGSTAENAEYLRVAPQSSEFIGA

NS(=O)(=O)c1cccc(Nc2nccc(-c3ccccc3)n2)c1 [13f, 3-[(4-phenylpyrimidin-2-yl)amino] benzene-1-sulfonamide]
IC50: 22.7 nM
